Test results reported in patent US10787472B2, “Prodrugs of pyridone amides useful as modulators of sodium channels” (VERTEX PHARMACEUTICALS INCORPORATED, priority 2013, dated 2020).

Experiments:
[1] = Monkey oral pharmacokinetic study; format: in vivo, cynomolgus monkeys
Protocol: (§1) Before extraction, plasma samples were diluted using blank plasma at an appropriate dilution factor, as necessary, depending on the dose level. […] After centrifugation, the supernatant extract (10 μL) was injected onto the LC/MS/MS system. The HPLC system included a Phenomenex Synergy Kinetix C8 column, 2.6 micron, 2.0 mm diameter×75 mm long eluted with a gradient mobile phase consisting of 0.1% formic acid in water or in acetonitrile.
(§2) The analytes were detected by MS/MS with Electrospray Ionization (ESI) in the mode of multiple reaction monitoring (MRM). […] The intra-day and inter-day assay accuracy was within 20% of the nominal values. The intra- and inter-day assay variability was ≤20%.
(§3) Key pharmacokinetic parameters such as AUCall, AUCextra, Cmax, tmax, Cl, Vss and t1/2 were determined.
(§4) Descriptive statistical data of pharmacokinetic parameters were calculated, including the mean, standard deviation (SD), using Watson LIMS version 7.4 SP3 or Microsoft Excel 2000.
Male or female cynomolgus monkeys (n=3 per dose group) were administered single nominal PO doses of 10, 40, 100, 300, 500, 750 and 1000 mg/kg of compound 9 by gavage. Compound 9 was formulated in 30% PEG400 and 10% TPGS in water or 5% TPGS, 5% PVP-K30 in 50 mM Citrate, pH 5. Animals were fasted overnight prior to dosing, and were fed two hours post dose. Water was available before and after dosing. […]

[2] = Rat oral pharmacokinetic study; format: in vivo, Sprague Dawley rats; conditions: for Cmax: male rat, analyte 9a in plasma, 5% TPGS/5% PVP-K30/50 mM Citrate pH5, mean ± SD, N=3
Protocol: as §1, §2, §3, §4
Groups of male and female Sprague Dawley rats (n=3 per dose group) were administered single nominal oral doses of 10, 100, 400, 640, 1000 mg/kg (for males) and 30, 100, 300, 640, 1000 mg/kg (for females) of compound 9 by gavage. Compound 9 was formulated in either 30% PEG400 and 10% TPGS in water or 5% TPGS, 5% PVP-K30 in 50 mM Citrate, pH 5. Animals had free access to food and water before and after dosing. Blood samples (approximately 0.25 mL each) were collected via a carotid artery catheter prior to dosing and at 0.25, 0.5, 1, 2, 4, 8, 12, 24, 48 and 72 hours post dose. Each blood sample was collected into a tube that was kept on wet ice and contained potassium EDTA as the anticoagulant. Plasma was separated and stored at approximately −70° C. until analysis.

[3] = Rat IV pharmacokinetic study; format: in vivo, Sprague Dawley rats; conditions: male rat, after IV bolus 1 mg/kg compound 9; LLOQ 2.5 ng/mL
Protocol: as §1, §2, §3, §4
Male Sprague Dawley rats (n=3) were administered a single nominal IV bolus dose of 1 mg/kg of compound 9 via a jugular vein cannula. […] Animals had free access to food and water before and after dosing. Blood samples (approximately 0.25 mL each) were collected via a carotid artery catheter prior to dosing and at 5 min, 10 min, 0.25, 0.5, 1, 2, 4, 8, 12, 24 hours post dose. […]

Aqueous solubility study = format: physicochemical; conditions: ambient conditions, 24 hours
Protocol: The aqueous solubility of compound 9 and 9a were determined according to the following procedure. Solubility data was determined at ambient conditions by equilibrating the compound with water on a shaking bed for 24 hours, followed by centrifugation and separation of the saturated solutions. The pH value of each media was measured before centrifugation, and the saturated solutions were assayed by HPLC.

[4] = Chemical and physical stability of crystalline Form B (XRPD, HPLC impurity profile, appearance); format: physicochemical
Excerpt: Chemically and physically stable means no changes were observed on the X-ray powder diffraction and HPLC impurity profiles (e.g., less than 0.2% variance) and there were no observed changes in physical appearance of the samples.

Cc1cc(F)ccc1Oc1cc(C(F)(F)F)ccc1C(=O)Nc1ccn(COP(=O)(O)O)c(=O)c1 [Compound 9, (4-(2-(4-fluoro-2-methylphenoxy)-4-(trifluoromethyl)benzamido)-2-oxopyridin-1(2H)-yl)methyl dihydrogen phosphate]
plasma concentrations of compound 9 ([1]; monkey, after PO compound 9 10-1000 mg/kg, LLOQ 10.0 to 25.0 ng/mL): below LLOQ for the majority of the samples | in vivo conversion of prodrug to parent compound ([1]; monkeys): converted in vivo into compound 9a | plasma concentrations of compound 9 ([2]; rat, after PO compound 9 10-1000 mg/kg, LLOQ 2.5 to 25 ng/mL): below LLOQ for the majority of the samples | in vivo conversion of prodrug to parent compound ([2]; rats): converted in vivo into compound 9a | plasma concentrations of compound 9 [3]: below LLOQ for the majority of the samples

Cc1cc(F)ccc1Oc1cc(C(F)(F)F)ccc1C(=O)Nc1cc[nH]c(=O)c1 [Compound 9a, 2-(4-fluoro-2-methylphenoxy)-N-(2-oxo-1,2-dihydropyridin-4-yl)-4-(trifluoromethyl)benzamide]
Cmax ([2]; Sprague-Dawley, compound 9 PO 100 mg/kg): 1670 ± 1.9 ng/mL | Cmax ([2]; compound 9 PO 1000 mg/kg): 4540 ± 910 ng/mL | Solubility (Aqueous solubility study; pH 1.2, crystalline): <1 µg/mL | Solubility (Aqueous solubility study; water, pH 6.0, crystalline): <1 µg/mL

Cc1cc(F)ccc1Oc1cc(C(F)(F)F)ccc1C(=O)Nc1ccn(COP(=O)(O)O)c(=O)c1 [crystalline Form B, (4-(2-(4-fluoro-2-methylphenoxy)-4-(trifluoromethyl)benzamido)-2-oxopyridin-1(2H)-yl)methyl dihydrogen phosphate]
chemical and physical stability ([4]; 5° C./dry, 40° C./dry, 25° C. with RH up to 60%, 40° C. with RH up to 75%): chemically and physically stable for at least one month | chemical and physical stability ([4]; open dish 40° C., 40° C./RH up to 75%, 25° C./RH up to 60%, closed dish 5° C. with desiccator): chemically and physically stable for at least three months
